{"source": "patent US11098010B2", "about": "(priority 2017, dated 2021)", "note": "Where a name gives a salt, the structure may show the parent alone."}
{"system": "HBV rcDNA in HepDE19 cells", "test": "HepDE19 assay with bDNA quantitation of HBV rcDNA", "format": "cell-based, hepatitis B virus (HBV)", "conditions": "HepDE19 cells, inhibition of rcDNA formation, 7 day incubation, top concentration 25 μM; read-out: DE-19 bDNA EC50", "units": {"EC50": "µM"}}
{"smiles": "CO[C@@H]1Cc2c(C(=O)Nc3ccc(F)c(Cl)c3)ccc(F)c2[C@H]1NC(=O)OCc1ccccn1", "note": "[Compound 178, O-Pyridin-2-ylmethyl, N-((1R,2R)-4-((3-chloro-4-fluorophenyl)carbamoyl)-7-fluoro-2-methoxy-2,3-dihydro-1H-inden-1-yl) carbamate]", "EC50": 0.04}
{"system": "HBV rcDNA in HepDE19 cells", "test": "HepDE19 assay with bDNA quantitation of HBV rcDNA", "format": "cell-based, hepatitis B virus (HBV)", "conditions": "Hepatitis B virus, HepDE19, 168 h, HepDE19 cells, inhibition of rcDNA formation, 7 day incubation, top concentration 25 μM; read-out: DE-19 bDNA EC50", "units": {"EC50": "µM"}}
{"smiles": "N#Cc1cccc(COC(=O)N[C@H]2CCc3c(C(=O)Nc4ccc(F)c(Cl)c4)ccc(F)c32)n1", "note": "[Compound 150, O-(6-Cyanopyridin-2-yl)methyl, N—(S)-(4-((3-chloro-4-fluorophenyl)carbamoyl)-7-fluoro-2,3-dihydro-1H-inden-1-yl)carbamate]", "EC50": 0.15}
{"smiles": "O=C(N[C@H]1CCc2c(C(=O)Nc3ccc(F)c(Cl)c3)ccc(F)c21)OC1CCC(O)CC1", "note": "(stereo partly drawn) [Compound 154, O-cis-4-Hydroxycyclohexyl, N—((S)-4-((3-chloro-4-fluorophenyl)carbamoyl)-7-fluoro-2,3-dihydro-1H-inden-1-yl) carbamate]", "EC50": 0.35}
{"smiles": "CCC(=O)N[C@H]1CCc2c(C(=O)Nc3ccc(F)c(Cl)c3)ccc(F)c21", "note": "[Compound 158, (S)-N-(3-chloro-4-fluorophenyl)-7-fluoro-1-propionamido-2,3-dihydro-1H-indene-4-carboxamide]", "EC50": 0.81}
{"smiles": "O=C1C[C@H](OC(=O)N[C@H]2CCc3c(C(=O)Nc4ccc(F)c(Cl)c4)ccc(F)c32)CN1", "note": "[Compound 166, O—(S)-5-Oxopyrrolidin-3-yl, N—((S)-4-((3-chloro-4-fluorophenyl)carbamoyl)-7-fluoro-2,3-dihydro-1H-inden-1-yl) carbamate]", "EC50": 0.14}
{"smiles": "O=C(N[C@H]1CCc2c(C(=O)Nc3ccc(F)c(Cl)c3)ccc(F)c21)O[C@@H]1CCOC1", "note": "[Compound 170, O—(R)-Tetrahydrofuran-3-yl, N—((S)-4-((3-chloro-4-fluorophenyl)carbamoyl)-7-fluoro-2,3-dihydro-1H-inden-1-yl) carbamate]", "EC50": 0.26}
{"smiles": "Cn1ccc(CCC(=O)N[C@H]2CCc3c(C(=O)Nc4ccc(F)c(Cl)c4)ccc(F)c32)n1", "note": "[Compound 171, (S)—N-(3-Chloro-4-fluorophenyl)-7-fluoro-1-(3-(1-methyl-1H-pyrazol-3-yl)propanamido)-2,3-dihydro-1H-indene-4-carboxamide]", "EC50": 0.13}
{"smiles": "O=C(Nc1ccc(F)c(Cl)c1)c1ccc(F)c2c1CC[C@@H]2NC(=O)C1CC1", "note": "[Compound 179, (S)—N-(3-Chloro-4-fluorophenyl)-1-(cyclopropanecarboxamido)-7-fluoro-2,3-dihydro-1H-indene-4-carboxamide]", "EC50": 0.14}
{"system": "HBV rcDNA in HepDE19 cells", "test": "HepDE19 assay with bDNA quantitation of HBV rcDNA", "format": "cell-based, hepatitis B virus (HBV)", "conditions": "Hepatitis B virus, HepDE19, 168 h, read-out: DE-19 bDNA EC50 (μM), HepDE19 cells, inhibition of rcDNA formation, 7 day incubation, top concentration 25 μM", "units": {"EC50": "µM"}}
{"smiles": "O=C(NCc1ccccn1)N[C@H]1CCc2c(C(=O)Nc3ccc(F)c(Cl)c3)ccc(F)c21", "note": "[Compound 149, (S)—N-(3-chloro-4-fluorophenyl)-7-fluoro-1-(3-(pyridin-2-ylmethyl)ureido)-2,3-dihydro-1H-indene-4-carboxamide Hydrochloride]", "EC50": 0.21}
{"smiles": "O=C(N[C@H]1CCc2c(C(=O)Nc3ccc(F)c(Cl)c3)ccc(F)c21)OCc1ccc2ccccc2n1", "note": "[Compound 151, O-Quinolin-2-ylmethyl, N—(S)-(4-((3-chloro-4-fluorophenyl)carbamoyl)-7-fluoro-2,3-dihydro-1H-inden-1-yl) carbamate]", "EC50": 0.41}
{"smiles": "Cc1cnc(COC(=O)N[C@H]2CCc3c(C(=O)Nc4ccc(F)c(Cl)c4)ccc(F)c32)cn1", "note": "[Compound 152, O-(5-Methylpyrazin-2-yl)methyl, N—(S)-(4-((3-chloro-4-fluorophenyl)carbamoyl)-7-fluoro-2,3-dihydro-1H-inden-1-yl)carbamate]", "EC50": 0.07}
{"smiles": "O=C(N[C@H]1CCc2c(C(=O)Nc3ccc(F)c(Cl)c3)ccc(F)c21)OCCN1CCOCC1", "note": "[Compound 153, O-2-Morpholinoethyl, N—(S)-(4-((3-chloro-4-fluorophenyl)carbamoyl)-7-fluoro-2,3-dihydro-1H-inden-1-yl) carbamate]", "EC50": 0.47}
{"smiles": "O=C(N[C@H]1CCc2c(C(=O)Nc3ccc(F)c(Cl)c3)ccc(F)c21)OCCCO", "note": "[Compound 155, O-3-Hydroxypropyl, N—(S)-(4-((3-chloro-4-fluorophenyl)carbamoyl)-7-fluoro-2,3-dihydro-1H-inden-1-yl) carbamate]", "EC50": 24}
{"smiles": "CC(=O)NCCOC(=O)N[C@H]1CCc2c(C(=O)Nc3ccc(F)c(Cl)c3)ccc(F)c21", "note": "[Compound 157, O-2-Acetamidoethyl, N—(S)-(4-((3-chloro-4-fluorophenyl)carbamoyl)-7-fluoro-2,3-dihydro-1H-inden-1-yl) carbamate]", "EC50": 0.26}
{"smiles": "COc1ccnc(N[C@H]2CCc3c(C(=O)Nc4ccc(F)c(Cl)c4)ccc(F)c32)n1", "note": "[Compound 159, (S)—N-(3-Chloro-4-fluorophenyl)-7-fluoro-1-((4-methoxypyrimidin-2-yl)amino)-2,3-dihydro-1H-indene-4-carboxamide]", "EC50": 0.69}
{"smiles": "Cc1ccnc(N[C@H]2CCc3c(C(=O)Nc4ccc(F)c(Cl)c4)ccc(F)c32)n1", "note": "[Compound 160]", "EC50": 0.25}
{"smiles": "COc1nccc(N[C@H]2CCc3c(C(=O)Nc4ccc(F)c(Cl)c4)ccc(F)c32)n1", "note": "[Compound 161, (S)—N-(3-Chloro-4-fluorophenyl)-7-fluoro-1-((2-methoxypyrimidin-4-yl)amino)-2,3-dihydro-1H-indene-4-carboxamide]", "EC50": 0.27}
{"smiles": "Cc1cnc(N[C@H]2CCc3c(C(=O)Nc4ccc(F)c(Cl)c4)ccc(F)c32)nc1", "note": "[Compound 162, (S)—N-(3-Chloro-4-fluorophenyl)-7-fluoro-1-((5-methylpyrimidin-2-yl)amino)-2,3-dihydro-1H-indene-4-carboxamide]", "EC50": 0.15}
{"smiles": "COc1cc(N[C@H]2CCc3c(C(=O)Nc4ccc(F)c(Cl)c4)ccc(F)c32)ncn1", "note": "[Compound 163, (S)—N-(3-Chloro-4-fluorophenyl)-7-fluoro-1-((6-methoxypyrimidin-4-yl)amino)-2,3-dihydro-1H-indene-4-carboxamide]", "EC50": 0.07}
{"smiles": "Cc1cc(C)nc(N[C@H]2CCc3c(C(=O)Nc4ccc(F)c(Cl)c4)ccc(F)c32)n1", "note": "[Compound 164, (S)—N-(3-Chloro-4-fluorophenyl)-1-((4,6-dimethylpyrimidin-2-yl)amino)-7-fluoro-2,3-dihydro-1H-indene-4-carboxamide]", "EC50": 1}
{"smiles": "CNC(=O)N[C@@H]1c2cccc(C(=O)Nc3ccc(F)c(Cl)c3)c2C[C@H]1OC", "note": "[Compound 165, (1R,2R)—N-(3-Chloro-4-fluorophenyl)-2-methoxy-1-(3-methylureido)-2,3-dihydro-1H-indene-4-carboxamide]", "EC50": 0.33}
{"smiles": "O=C(Nc1ccc(F)c(Cl)c1)c1ccc(F)c2c1CC[C@@H]2NS(=O)(=O)CCc1ccccn1", "note": "[Compound 167, (S)—N-(3-Chloro-4-fluorophenyl)-7-fluoro-1-((2-(pyridin-2-yl)ethyl)sulfonamido)-2,3-dihydro-1H-indene-4-carboxamide Hydrochloride]", "EC50": 0.29}
{"smiles": "O=C(N[C@H]1CCc2c(C(=O)Nc3ccc(F)c(Cl)c3)ccc(F)c21)OCc1cccc(C(F)(F)F)n1", "note": "[Compound 168, O-(6-(Trifluoromethyl)pyridin-2-yl)methyl, N—(S)-(4-((3-chloro-4-fluorophenyl)carbamoyl)-7-fluoro-2,3-dihydro-1H-inden-1-yl) carbamate]", "EC50": 0.62}
{"smiles": "O=C(N[C@H]1CCc2c(C(=O)Nc3ccc(F)c(Cl)c3)ccc(F)c21)OCc1ccc(C(F)(F)F)cn1", "note": "[Compound 169, O-(5-(Trifluoromethyl)pyridin-2-yl)methyl, N—(S)-(4-((3-chloro-4-fluorophenyl)carbamoyl)-7-fluoro-2,3-dihydro-1H-inden-1-yl) carbamate]", "EC50": 2.2}
{"smiles": "N#Cc1ccc(COC(=O)N[C@H]2CCc3c(C(=O)Nc4ccc(F)c(Cl)c4)ccc(F)c32)nc1", "note": "[Compound 172, O-(5-Cyanopyridin-2-yl)methyl, N—(S)-(4-((3-chloro-4-fluorophenyl)carbamoyl)-7-fluoro-2,3-dihydro-1H-inden-1-yl) carbamate]", "EC50": 0.19}
{"smiles": "Cc1nccnc1COC(=O)N[C@H]1CCc2c(C(=O)Nc3ccc(F)c(Cl)c3)ccc(F)c21", "note": "[Compound 173, O-(3-Methylpyrazin-2-yl)methyl, N—(S)-(4-((3-chloro-4-fluorophenyl)carbamoyl)-7-fluoro-2,3-dihydro-1H-inden-1-yl) carbamate]", "EC50": 0.12}
{"smiles": "CC(=O)N1CCC(COC(=O)N[C@H]2CCc3c(C(=O)Nc4ccc(F)c(Cl)c4)ccc(F)c32)CC1", "note": "[Compound 174, O-(1-Acetylpiperidin-4-yl)methyl, N—(S)-(4-((3-chloro-4-fluorophenyl)carbamoyl)-7-fluoro-2,3-dihydro-1H-inden-1-yl) carbamate]", "EC50": 0.87}
{"smiles": "O=C(N[C@H]1CCc2c(C(=O)Nc3ccc(F)c(Cl)c3)ccc(F)c21)OCC1CCN(C(=O)CO)CC1", "note": "[Compound 175, O-(1-(2-Hydroxyacetyl)piperidin-4-yl)methyl, N—(S)-(4-((3-chloro-4-fluorophenyl)carbamoyl)-7-fluoro-2,3-dihydro-1H-inden-1-yl) carbamate]", "EC50": 0.96}
{"smiles": "CNC(=O)N1CCC(COC(=O)N[C@H]2CCc3c(C(=O)Nc4ccc(F)c(Cl)c4)ccc(F)c32)CC1", "note": "[Compound 176, O-(1-(Methylcarbamoyl)piperidin-4-yl)methyl, N—(S)-(4-((3-chloro-4-fluorophenyl)carbamoyl)-7-fluoro-2,3-dihydro-1H-inden-1-yl) carbamate]", "EC50": 0.64}
{"smiles": "O=C(N[C@H]1CCc2c(C(=O)Nc3ccc(F)c(Cl)c3)ccc(F)c21)OCC1CS(=O)(=O)CCN1", "note": "(stereo partly drawn) [Compound 177, O-(1,1-Dioxidothiomorpholin-3-yl)methyl, N—((S)-4-((3-chloro-4-fluorophenyl)carbamoyl)-7-fluoro-2,3-dihydro-1H-inden-1-yl) carbamate Hydrochloride]", "EC50": 0.5}
{"system": "HBV rcDNA in HepDE19 cells", "test": "HepDE19 assay with bDNA quantitation of HBV rcDNA", "format": "cell-based, hepatitis B virus (HBV)", "conditions": "read-out: DE-19 bDNA EC50; HepDE19 cells, inhibition of rcDNA formation, 7 day incubation, top concentration 25 μM", "units": {"EC50": "µM"}}
{"smiles": "O=C(N[C@H]1CCc2c(C(=O)Nc3ccc(F)c(Cl)c3)ccc(F)c21)OC1CCC(O)CC1", "note": "(stereo partly drawn) [Compound 156, O-trans-4-Hydroxycyclohexyl, N—((S)-4-((3-chloro-4-fluorophenyl)carbamoyl)-7-fluoro-2,3-dihydro-1H-inden-1-yl) carbamate]", "EC50": 0.22}
